From PubChem BioAssay (NCI) come the findings set out here.

Test systems include BT-549 breast; NCI-H460 lung; PC-3 prostate; SF-268 CNS; SF-295 CNS; SF-539 CNS; SK-MEL-2 melanoma; SNB-75 CNS; T-47D breast; UACC-257 melanoma.
Holding throughout (assay): NCI anticancer screen, dose series, 48 h

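Exposure lasted 48 hours, with cells grown in 96-well plates and compounds tested at five concentrations. At the GI50, growth is halved. The concentration for full growth arrest is given as TGI.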

Turning to `CCCCCCCCCCCCNC(=O)[C@H]1CSC(c2ccsc2)N1` (stereo not given in full), the GI50 in the experiment with BT-549 breast is 0.797 µM; in the experiment with NCI-H460 lung, 0.986 µM; in the experiment on PC-3 prostate, 0.837 µM; with SF-268 CNS, 0.613 µM; with SF-295 CNS, 0.926 µM; with SF-539 CNS, 0.902 µM. In addition, the GI50 is 0.974 µM in the experiment with SK-MEL-2 melanoma, 0.938 µM in the experiment on SNB-75 CNS, 0.976 µM in the experiment with T-47D breast and 0.946 µM in the experiment with UACC-257 melanoma. Moreover, the TGI with BT-549 breast came out at 1.58 µM; in the experiment with NCI-H460 lung, 1.84 µM; in the experiment with PC-3 prostate it was 1.56 µM; in the experiment with SF-268 CNS it was 1.45 µM; in the experiment on SF-295 CNS it was 1.68 µM; in the experiment with SF-539 CNS it was 1.7 µM. For the same compound, the TGI with SK-MEL-2 melanoma is 1.76 µM; in the experiment on SNB-75 CNS it was 1.67 µM; with T-47D breast, 2.02 µM; in the experiment on UACC-257 melanoma, 1.7 µM.

With `CC(C)c1ccc2c(c1)c(SC(C)(C)C)c(CC(C)(C)C(=O)O)n2Cc1ccc(Cl)cc1`, the GI50 is 9.79 µM in the experiment on BT-549 breast; 4.23 µM in the experiment on NCI-H460 lung; 8.18 µM in the experiment with PC-3 prostate; 8.79 µM in the experiment with SF-268 CNS; 6.69 µM in the experiment on SF-295 CNS; 9.05 µM in the experiment with SF-539 CNS. The GI50 in the experiment on SK-MEL-2 melanoma is 7.5 µM; in the experiment on SNB-75 CNS, 9.76 µM; with T-47D breast it was 9.86 µM; in the experiment on UACC-257 melanoma, 11 µM. Also, the TGI stood at 22.5 µM with BT-549 breast; 16.2 µM with NCI-H460 lung; 23.4 µM with PC-3 prostate; 23.5 µM in the experiment on SF-268 CNS; 22.2 µM in the experiment on SF-295 CNS; 21.8 µM in the experiment with SF-539 CNS. Besides, the TGI in the experiment with SK-MEL-2 melanoma stood at 20.1 µM; in the experiment with SNB-75 CNS it was 22.3 µM; in the experiment on T-47D breast, 27.3 µM; in the experiment on UACC-257 melanoma it was 24.7 µM.

As for `CC[C@H](C)[C@H](NC(=O)N[C@@H](C)c1ccccc1)C(=O)N(C)[C@H](C[C@@H](OC(C)=O)c1nc(C(=O)N[C@@H](Cc2ccccc2)C[C@H](C)C(=O)OC)cs1)C(C)C`, the GI50 in the experiment with BT-549 breast was 21.4 µM; in the experiment on NCI-H460 lung, 26.6 µM; in the experiment on PC-3 prostate, 27.5 µM; in the experiment with SF-268 CNS, 29.7 µM; with SF-295 CNS, 25.6 µM; in the experiment on SF-539 CNS it was 20.2 µM. Also, the GI50 in the experiment with SK-MEL-2 melanoma was 18.3 µM; with SNB-75 CNS, 13.8 µM; in the experiment with T-47D breast, 97.9 µM; in the experiment on UACC-257 melanoma it was greater than 100 µM. The TGI in the experiment on BT-549 breast was 74.9 µM; with NCI-H460 lung, 95.5 µM; with PC-3 prostate it was greater than 100 µM; in the experiment on SF-268 CNS, greater than 100 µM; in the experiment on SF-295 CNS it was greater than 100 µM; with SF-539 CNS it was 56.6 µM. The TGI in the experiment with SK-MEL-2 melanoma, with SNB-75 CNS, in the experiment on T-47D breast and in the experiment with UACC-257 melanoma was greater than 100 µM throughout.

For the compound `Cc1ccc(NCCNCC(O)CO)c2c(=O)c3ccccc3sc12` (stereo not given), the GI50 was 2.47 µM in the experiment with BT-549 breast; 0.776 µM in the experiment on NCI-H460 lung; 1.58 µM in the experiment with PC-3 prostate; 1.81 µM with SF-268 CNS; 1.52 µM with SF-295 CNS; 1.67 µM in the experiment with SF-539 CNS. Besides, the GI50 in the experiment on SK-MEL-2 melanoma is 1.77 µM; in the experiment with SNB-75 CNS, 2.07 µM; in the experiment with T-47D breast it was 1.79 µM; in the experiment with UACC-257 melanoma it was 1.87 µM. Further, the TGI stood at 10.5 µM in the experiment on BT-549 breast; 2.43 µM in the experiment with NCI-H460 lung; 3.22 µM with PC-3 prostate; 3.96 µM in the experiment with SF-268 CNS; 3.09 µM in the experiment on SF-295 CNS; 3.19 µM with SF-539 CNS. Also, the TGI in the experiment with SK-MEL-2 melanoma was 3.49 µM; in the experiment with SNB-75 CNS, 11.5 µM; in the experiment on T-47D breast it was 4.08 µM; in the experiment on UACC-257 melanoma, 3.58 µM.

With `COc1ccc(-c2nn3ncccc3c2-c2ccnc(Nc3cccc(C(F)(F)F)c3)n2)cc1`, the GI50 in the experiment on BT-549 breast is 12.4 µM; in the experiment on NCI-H460 lung it was 7.62 µM; in the experiment on PC-3 prostate it was 7.25 µM; with SF-268 CNS it was 9.86 µM; with SF-295 CNS, 7.6 µM; in the experiment with SF-539 CNS, 13.8 µM. The GI50 in the experiment on SK-MEL-2 melanoma was 8.11 µM; in the experiment on SNB-75 CNS, greater than 16.3 µM; in the experiment with T-47D breast, 6.53 µM; in the experiment on UACC-257 melanoma, 9.34 µM. The TGI in the experiment with BT-549 breast, in the experiment on NCI-H460 lung, in the experiment on PC-3 prostate, in the experiment on SF-268 CNS, in the experiment with SF-295 CNS and in the experiment with SF-539 CNS was greater than 25 µM in each case. In addition, the TGI was 21.3 µM with SK-MEL-2 melanoma, greater than 25 µM with SNB-75 CNS, greater than 25 µM in the experiment with T-47D breast and greater than 25 µM in the experiment with UACC-257 melanoma.

Consider `COc1ccc(CNC(=O)c2ccc(-c3cc(-c4nnc(C)o4)ccc3C)cc2)cc1`, for which the GI50 with BT-549 breast was 13.3 µM; in the experiment on NCI-H460 lung it was greater than 25 µM; with PC-3 prostate it was 19.2 µM; with SF-268 CNS, 21 µM; with SF-295 CNS, 7.6 µM; with SF-539 CNS it was greater than 25 µM. Also, the GI50 is greater than 25 µM with SK-MEL-2 melanoma, 14.2 µM in the experiment on SNB-75 CNS, 7.01 µM in the experiment with T-47D breast and 12.8 µM in the experiment on UACC-257 melanoma. The TGI in the experiment on BT-549 breast, in the experiment on NCI-H460 lung, with PC-3 prostate, in the experiment with SF-268 CNS, in the experiment with SF-295 CNS and in the experiment on SF-539 CNS was greater than 25 µM in each case. The TGI with SK-MEL-2 melanoma, in the experiment on SNB-75 CNS, in the experiment on T-47D breast and in the experiment with UACC-257 melanoma was greater than 25 µM each time.

In the case of `Cc1cc([C@H](C)Nc2nccc(N3C(=O)OC[C@@H]3[C@H](C)F)n2)ncc1-c1ccnc(C(F)(F)F)c1`, the GI50 in the experiment on BT-549 breast was 18.1 µM; in the experiment on NCI-H460 lung it was 37.4 µM; in the experiment on PC-3 prostate, 31.3 µM; with SF-268 CNS, 54 µM; with SF-295 CNS, 20.1 µM; in the experiment on SF-539 CNS, 61.3 µM. Moreover, the GI50 is 40.2 µM with SK-MEL-2 melanoma, 88.2 µM with SNB-75 CNS, 16.4 µM in the experiment with T-47D breast and 30.5 µM with UACC-257 melanoma. For the same compound, the TGI in the experiment on BT-549 breast was 82.6 µM; with NCI-H460 lung, greater than 100 µM; with PC-3 prostate, greater than 100 µM; in the experiment on SF-268 CNS, greater than 100 µM; with SF-295 CNS, greater than 100 µM; in the experiment on SF-539 CNS, greater than 100 µM. Moreover, the TGI in the experiment on SK-MEL-2 melanoma, in the experiment on SNB-75 CNS, with T-47D breast and in the experiment on UACC-257 melanoma was greater than 100 µM in each case.

With `CCOC(=O)C(=Cc1c(-c2ccccc2)[nH]c2ccccc12)C(=O)OCC`, the GI50 is 5.17 µM in the experiment on BT-549 breast; 3.75 µM in the experiment on NCI-H460 lung; 3.19 µM in the experiment with PC-3 prostate; 7.46 µM with SF-268 CNS; 7.27 µM in the experiment with SF-295 CNS; 14.4 µM in the experiment on SF-539 CNS. The GI50 in the experiment on SK-MEL-2 melanoma was 4.6 µM; with SNB-75 CNS, 6.55 µM; with T-47D breast, 2.62 µM; in the experiment with UACC-257 melanoma, 7.33 µM. For the same compound, the TGI with BT-549 breast was 38.5 µM; with NCI-H460 lung it was 13.6 µM; with PC-3 prostate, 14.3 µM; in the experiment on SF-268 CNS, 28.5 µM; in the experiment with SF-295 CNS, 63.8 µM; in the experiment with SF-539 CNS, 30.9 µM. The TGI in the experiment with SK-MEL-2 melanoma came out at 17.3 µM; in the experiment with SNB-75 CNS, 28.4 µM; in the experiment on T-47D breast, 8.43 µM; in the experiment with UACC-257 melanoma, 19.3 µM.

For the compound `Cc1cc2c(-c3nc4ccccn4c3NC34CC5CC(CC(C5)C3)C4)c(O)c(O)cc2c(O)c1-c1c(C)cc2c(-c3nc4ccccn4c3NC34CC5CC(CC(C5)C3)C4)c(O)c(O)cc2c1O`, the GI50 in the experiment on BT-549 breast was 0.105 µM; in the experiment with NCI-H460 lung, 0.0903 µM; with PC-3 prostate, 0.231 µM; with SF-268 CNS, 0.239 µM; with SF-295 CNS, 0.262 µM; in the experiment with SF-539 CNS, 0.671 µM. Further, the GI50 with SK-MEL-2 melanoma was 0.802 µM; in the experiment with SNB-75 CNS, 1.04 µM; in the experiment with T-47D breast, 0.187 µM; in the experiment with UACC-257 melanoma it was 1 µM. Further, the TGI came out at 5.96 µM in the experiment on BT-549 breast; 2.1 µM with NCI-H460 lung; 11.9 µM in the experiment with PC-3 prostate; 6.78 µM in the experiment on SF-268 CNS; 2.78 µM in the experiment on SF-295 CNS; 2.98 µM in the experiment with SF-539 CNS. The TGI in the experiment with SK-MEL-2 melanoma is 6.25 µM; in the experiment with SNB-75 CNS, 19.1 µM; in the experiment with T-47D breast, 2.49 µM; in the experiment on UACC-257 melanoma, greater than 25 µM.

On to `CCCCCCCCCCCCCCCCCCNC(=O)[C@H]1CSC(c2ccc(F)c(OC)c2)N1` (stereo not given in full), for which the GI50 with BT-549 breast is 0.974 µM; with NCI-H460 lung, 0.211 µM; with PC-3 prostate, 1.55 µM; with SF-268 CNS, 0.908 µM; in the experiment with SF-295 CNS, 2.14 µM; in the experiment with SF-539 CNS, 1.77 µM. Moreover, the GI50 in the experiment with SK-MEL-2 melanoma is 0.887 µM; with SNB-75 CNS, 0.87 µM; in the experiment with T-47D breast it was 0.604 µM; with UACC-257 melanoma it was 0.971 µM. Also, the TGI with BT-549 breast was determined as 1.85 µM; in the experiment on NCI-H460 lung, 0.824 µM; with PC-3 prostate, 12 µM; with SF-268 CNS it was 1.84 µM; in the experiment with SF-295 CNS, 13.7 µM; with SF-539 CNS it was 6.26 µM. The TGI was 1.67 µM in the experiment on SK-MEL-2 melanoma, 1.63 µM with SNB-75 CNS, 1.46 µM with T-47D breast and 1.88 µM with UACC-257 melanoma.
